Measured values reported in ChEMBL document CHEMBL6127102 (Bioorg Med Chem, 2024).
Activity calls are given as the source filed them. The rule behind the calls is not given here.

Columns and labels:
[1] = Cytotoxicity against human MCF-10A cells incubated for 72 hrs by MTT assay; type: toxicity, cell-based
MDA-MB-436 = experiment: Antitumor activity against BRCA 1-deficient human MDA-MB-436 cells incubated for 72 hrs by MTT assay; type: functional, cell-based; conditions: MDA-MB-436, 72 h
HCC1937 = experiment: Antitumor activity against BRCA 1-deficient human HCC1937 cells incubated for 72 hrs by MTT assay; type: functional, cell-based; conditions: HCC1937, 72 h
MDA-MB-231 [2] = experiment: Antitumor activity against human MDA-MB-231 cells harboring wild-type BRCA incubated for 72 hrs by MTT assay; type: functional, cell-based; conditions: MDA-MB-231, 72 h
MDA-MB-468 = experiment: Antitumor activity against human MDA-MB-468 cells harboring wild-type BRCA incubated for 72 hrs by MTT assay; type: functional, cell-based; conditions: MDA-MB-468, 72 h
MDA-MB-231 [3] = experiment: Induction of apoptosis in human MDA-MB-231 cells at 5 uM incubated for 24 hrs by Annexin V-FITC/PI staining based flow cytometry relative to control; type: functional
MDA-MB-231 [4] = experiment: Induction of apoptosis in human MDA-MB-231 cells assessed as increase in cleaved caspase-9 level at 5 uM incubated for 24 hrs by Western blot analysis; type: functional, cell-based
MDA-MB-231 [5] = experiment: Effect on RAF expression in human MDA-MB-231 cells at 5 uM incubated for 24 hrs by Western blot analysis; type: functional, cell-based
MDA-MB-231 [6] = experiment: Induction of apoptosis in human MDA-MB-231 cells assessed as increase in cleaved PARP level at 5 uM incubated for 24 hrs by Western blot analysis; type: functional, cell-based
MDA-MB-231 [7] = experiment: Effect on ERK1/2 phosphorylation in human MDA-MB-231 cells at 5 uM incubated for 24 hrs by Western blot analysis; type: functional, cell-based
MDA-MB-231 [8] = experiment: Effect on total ERK1/2 in human MDA-MB-231 cells at 5 uM incubated for 24 hrs by Western blot analysis; type: functional, cell-based
MDA-MB-231 [9] = experiment: Induction of apoptosis in human MDA-MB-231 cells as increase in red fluorescence at 5 uM incubated for 24 hrs by Calcein AM/PI staining based confocal microscopy; type: functional, cell-based
MDA-MB-231 [10] = experiment: Induction of apoptosis in human MDA-MB-231 cells assessed as increase in cleaved caspase-3 level at 5 uM incubated for 24 hrs by Western blot analysis; type: functional, cell-based
MDA-MB-231 [11] = experiment: Induction of DNA damage in human MDA-MB-231 cells assessed as increase in gamma-H2AX level at 5 uM incubated for 24 hrs by immunofluorescence based analysis; type: functional, cell-based
MDA-MB-231 [12] = experiment: Effect on MEK phosphorylation in human MDA-MB-231 cells at 5 uM incubated for 24 hrs by Western blot analysis; type: functional, cell-based
MDA-MB-231 [13] = experiment: Antitumor activity against human MDA-MB-231 cells xenografted in BALB/c nude mouse at 23 mg/kg, ip administered on every 2 days for 28 days in presence of Olaparib relative to control; type: functional; conditions: MDA-MB-231, 672 h, time 28 day, read-out: TGI
MDA-MB-231 [14] = experiment: Antitumor activity against human MDA-MB-231 cells xenografted in BALB/c nude mouse assessed as increase in apoptotic cells at 23 mg/kg, ip administered on every 2 days for 28 days by H and E staining based analysis; type: functional, organism-based; conditions: time 28.0 day
MDA-MB-231 [15] = experiment: […] activity in human MDA-MB-231 cells at 1 uM incubated for 24 hrs by wound healing assay; type: functional, cell-based
MDA-MB-231 [16] = experiment: Effect on CRAF expression in human MDA-MB-231 cells at 5 uM incubated for 24 hrs by Western blot analysis; type: functional, cell-based
MDA-MB-231 [17] = experiment: Effect on total MEK in human MDA-MB-231 cells at 5 uM incubated for 24 hrs by Western blot analysis; type: functional, cell-based
MDA-MB-231 [18] = experiment: Antitumor activity against human MDA-MB-231 cells xenografted in BALB/c nude mouse at 23 mg/kg, ip administered on every 2 days for 28 days relative to control; type: functional; conditions: MDA-MB-231, 672 h, time 28 day, read-out: TGI
MDA-MB-231 [19] = experiment: Induction of ROS generation in human MDA-MB-231 cells at 5 uM incubated for 24 hrs by DCFH-DA staining based flow cytometric analysis; type: functional, cell-based
[20] = Induction of depolarization of mitochondrial membrane potential in human MDA-MB-231 cells at 5 uM incubated for 24 hrs by JC-1 staining based flow cytometry relative to control; type: functional
[21] = Toxicity in BALB/c nude mouse xenografted with human MDA-MB-231 cells assessed as body weight change at 23 mg/kg, ip administered on every 2 days for 28 days; type: organism-based; conditions: in vivo, 672 h, time 28 day
[22] = Toxicity in BALB/c nude mouse xenografted with human MDA-MB-231 cells assessed as body weight change at 23 mg/kg, ip administered on every 2 days for 28 days in presence of Olaparib; type: organism-based; conditions: in vivo, 672 h, time 28 day
MDA-MB-231 [23] = experiment: Induction of apoptosis in human MDA-MB-231 cells assessed as increase in Bax level at 5 uM incubated for 24 hrs by Western blot analysis; type: functional, cell-based
MDA-MB-231 [24] = experiment: Induction of DNA damage in human MDA-MB-231 cells assessed as increase in olive tail moments at 5 uM incubated for 24 hrs by Comet assay; type: functional, cell-based
MDA-MB-231 [25] = experiment: Induction of apoptosis in human MDA-MB-231 cells assessed as decrease in Bcl-2 level at 5 uM incubated for 24 hrs by Western blot analysis; type: functional, cell-based
MDA-MB-231 [26] = experiment: Antitumor activity against human MDA-MB-231 cells xenografted in BALB/c nude mouse assessed as decrease in Ki-67 expression at 23 mg/kg, ip administered on every 2 days for 28 days in presence of Olaparib by H and E staining based analysis; type: functional, organism-based; conditions: time 28.0 day
MDA-MB-231 [27] = experiment: Antitumor activity against human MDA-MB-231 cells xenografted in BALB/c nude mouse assessed as increase in necrotic cells at 23 mg/kg, ip administered on every 2 days for 28 days by H and E staining based analysis; type: functional, organism-based; conditions: time 28.0 day
MDA-MB-231 [28] = experiment: Antitumor activity against human MDA-MB-231 cells xenografted in BALB/c nude mouse assessed as decrease in Ki-67 expression at 23 mg/kg, ip administered on every 2 days for 28 days by H and E staining based analysis; type: functional, organism-based; conditions: time 28.0 day
[29] = Toxicity in BALB/c nude mouse xenografted with human MDA-MB-231 cells assessed as drug tolerance at 23 mg/kg, ip administered on every 2 days for 28 days in presence of Olaparib; type: organism-based; conditions: in vivo, 672 h, time 28 day
MDA-MB-231 [30] = experiment: Antitumor activity against human MDA-MB-231 cells xenografted in BALB/c nude mouse assessed as increase in apoptotic cells at 23 mg/kg, ip administered on every 2 days for 28 days in presence of Olaparib by H and E staining based analysis; type: functional, organism-based; conditions: time 28.0 day
[31] = Toxicity in BALB/c nude mouse xenografted with human MDA-MB-231 cells assessed as drug tolerance at 23 mg/kg, ip administered on every 2 days for 28 days; type: organism-based; conditions: in vivo, 672 h, time 28 day
MDA-MB-231 [32] = experiment: Anti-migration activity in human MDA-MB-231 cells at 1 uM incubated for 24 hrs by wound healing assay; type: functional, cell-based
MDA-MB-231 [33] = experiment: Antitumor activity against human MDA-MB-231 cells xenografted in BALB/c nude mouse assessed as increase in necrotic cells at 23 mg/kg, ip administered on every 2 days for 28 days in presence of Olaparib by H and E staining based analysis; type: functional, organism-based; conditions: time 28.0 day
MDA-MB-231 [34] = experiment: Anti-migration activity in human MDA-MB-231 cells assessed as wound closure area at 1 uM incubated for 24 hrs by wound healing assay (reference value: 75.6 %); type: functional
[35] = molecular target: Poly [ADP-ribose] polymerase 1 (Homo sapiens, UniProt P09874); experiment: Inhibition of PARP1 (unknown origin) using histone as substrate incubated for 60 mins by ELISA
Chain of Poly [ADP-ribose] polymerase 1 (P09874 whole entry): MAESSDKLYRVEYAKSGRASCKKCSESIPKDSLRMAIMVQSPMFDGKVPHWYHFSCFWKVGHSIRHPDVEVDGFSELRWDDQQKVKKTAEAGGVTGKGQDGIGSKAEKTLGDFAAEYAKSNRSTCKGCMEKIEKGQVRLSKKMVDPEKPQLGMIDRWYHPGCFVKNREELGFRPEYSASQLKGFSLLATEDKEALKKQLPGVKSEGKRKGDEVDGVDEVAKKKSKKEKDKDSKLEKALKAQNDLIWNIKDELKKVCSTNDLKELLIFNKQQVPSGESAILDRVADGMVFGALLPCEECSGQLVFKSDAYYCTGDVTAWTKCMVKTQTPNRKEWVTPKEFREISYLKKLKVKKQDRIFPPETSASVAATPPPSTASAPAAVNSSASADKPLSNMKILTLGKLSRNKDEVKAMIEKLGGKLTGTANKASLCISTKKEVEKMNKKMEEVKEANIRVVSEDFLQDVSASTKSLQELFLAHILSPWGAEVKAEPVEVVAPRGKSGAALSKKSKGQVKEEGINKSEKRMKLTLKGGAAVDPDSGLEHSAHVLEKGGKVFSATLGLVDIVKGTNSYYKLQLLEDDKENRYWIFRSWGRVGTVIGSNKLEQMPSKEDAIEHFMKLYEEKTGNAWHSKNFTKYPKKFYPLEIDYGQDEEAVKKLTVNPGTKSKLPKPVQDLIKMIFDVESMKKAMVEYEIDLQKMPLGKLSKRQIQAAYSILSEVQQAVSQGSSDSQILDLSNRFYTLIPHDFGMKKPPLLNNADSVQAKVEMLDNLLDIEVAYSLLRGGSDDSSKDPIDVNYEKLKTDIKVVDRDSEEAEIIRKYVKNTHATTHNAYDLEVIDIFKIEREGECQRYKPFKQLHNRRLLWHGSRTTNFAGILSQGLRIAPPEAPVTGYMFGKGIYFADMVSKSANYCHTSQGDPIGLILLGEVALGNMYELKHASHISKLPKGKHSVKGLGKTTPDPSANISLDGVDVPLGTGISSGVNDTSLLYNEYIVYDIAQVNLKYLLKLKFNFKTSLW

Row | Compound | IC50 at 72 h [1] | IC50 (MDA-MB-436) | IC50 (HCC1937) | IC50 (MDA-MB-231 [2]) | IC50 (MDA-MB-468) | Activity (MDA-MB-231 [3]) | Activity (MDA-MB-231 [5]) | Activity (MDA-MB-231 [7]) | Activity (MDA-MB-231 [9]) | Activity (MDA-MB-231 [11]) | Activity (MDA-MB-231 [12]) | Activity (MDA-MB-231 [15]) | Activity (MDA-MB-231 [16]) | Activity (MDA-MB-231 [19]) | Activity [20] | Activity (MDA-MB-231 [23]) | Activity (MDA-MB-231 [24]) | Activity (MDA-MB-231 [25]) | other results
1 | COc1cc(OC)c(/C=C/S(=O)(=O)Cc2ccc(OC)c(NC(=O)CCC(=O)N3CCN(C(=O)c4cc(Cc5n[nH]c(=O)c6ccccc56)ccc4F)CC3)c2)c(OC)c1 | > 40 µM | 1.55 µM | 1.27 µM | 1.19 µM | 2.94 µM | – | – | – | – | – | – | – | – | – | – | – | – | – | –
2 | COc1cc(OC)c(/C=C/S(=O)(=O)Cc2ccc(OC)c(NCCCC(=O)O)c2)c(OC)c1 | 30.6 µM | 2.11 µM | 1.08 µM | 1.87 µM | 2.33 µM | 31.1% | inactive | Active | Active | Active | Active | Active | Active | Active | 31.56% | Active | Active | Active | Activity (MDA-MB-231 [4]): Active; Activity (MDA-MB-231 [6]): Active; Activity (MDA-MB-231 [8]): inactive; Activity (MDA-MB-231 [10]): Active; inhibition in vivo at 23 mg/kg (MDA-MB-231 [13]): 56.7%; Activity (MDA-MB-231 [14]): Active; Activity (MDA-MB-231 [17]): inactive; inhibition in vivo at 23 mg/kg (MDA-MB-231 [18]): 51.8%; Activity [21]: Non-Toxic; Activity [22]: Non-Toxic; Activity (MDA-MB-231 [26]): Active; Activity (MDA-MB-231 [27]): Active; Activity (MDA-MB-231 [28]): Active; Activity [29]: Non-Toxic; Activity (MDA-MB-231 [30]): Active; Activity [31]: Non-Toxic; Activity (MDA-MB-231 [32]): Active; Activity (MDA-MB-231 [33]): Active
3 | COc1cc(OC)c(/C=C/S(=O)(=O)Cc2ccc(OC)c(NC(=O)CCCCC(=O)O)c2)c(OC)c1 | > 40 µM | 7.14 µM | 5.29 µM | 6.94 µM | 6.99 µM | – | – | – | – | – | – | – | – | – | – | – | – | – | –
4 | O=C(c1cc(Cc2n[nH]c(=O)c3ccccc23)ccc1F)N1CCNCC1 | > 40 µM | 2.61 µM | 3.21 µM | 21 µM | 12.3 µM | 21.14% | inactive | inactive | inactive | inactive | inactive | inactive | inactive | inactive | 23.88% | Active | inactive | Active | Activity (MDA-MB-231 [34]): 66.1%; IC50 [35]: 0.0395 µM
5 | COc1cc(OC)c(/C=C/S(=O)(=O)Cc2ccc(OC)c(NC(=O)CCCC(=O)O)c2)c(OC)c1 | > 40 µM | 4.82 µM | 3.92 µM | 3.57 µM | 5.76 µM | – | – | – | – | – | – | – | – | – | – | – | – | – | –
6 | COc1cc(OC)c(/C=C/S(=O)(=O)Cc2ccc(OC)c(NC(=O)CCC(=O)O)c2)c(OC)c1 | > 40 µM | 2.09 µM | 2.17 µM | 2.08 µM | 3.19 µM | – | – | – | – | – | – | – | – | – | – | – | – | – | –
